The subject of this experiment is sheep vascular endothelial cell (SVEC). The experiment can be described thus: SVEC proliferation/cytotoxicity, CellTiterBlue assay. The conditions noted are these: without growth factors. The experiment is classed as cell-based. The protocol:
The cell media used was the EGM-2 Bullet Kit (CC-3162) from Lonza. It consists of 500 mL of basal media, antibiotics GA-1000 (Gentamicin, Amphotecerin-B), FBS (Fetal Bovine Serum) 10 mL, and a kit of growth factors (VEGF, hFGF-B, R3-IGF-1, Ascorbic Acid, Heparin). • In vitro viability assay:Live/dead assay • In vitro cytotoxicity(biocompatibility)/proliferation assay: CellTiterBlue® assay • This in vitro test was to find the optimal linoleic acid content in the material. Cells were cultured in different concentration of LA. […]
The fluorescence of live cells were measured at three time points:1, 3, 5 days. […] Fluorescence was recorded triple times for each well at 560 nm/590 nm excitation/emission.
A general note: Alamar Blue is a resazurin reagent that responds to reducing activity.

As to `CCCCC/C=C\C/C=C\CCCCCCCC(=O)O` [LA, linoleic acid], the SVEC proliferation entry reads like this: (36 nM LA) “higher proliferation than the cells in the positive control medium”; (360 nM LA) “higher proliferation than the cells in the positive control medium”.

Values taken from US20180051132A1, “ELASTOMER COUPLED WITH BIOACTIVE FATTY ACID” (University of Pittsburgh - Of the Commonwealth System of …, priority 2016, published 2018).
